Results taken from ChEMBL document CHEMBL1138048, “Synthesis and anticancer activity of brefeldin A ester derivatives” (J Med Chem, 2006).

Tests used:
A549 = experiment: Antiproliferative activity against human A549 cell line; type: functional
UACC-62 = experiment: Antiproliferative activity against human UACC62 cell line; type: functional
OVCAR-3 = experiment: Antiproliferative activity against human OVCAR-3 cell line; type: functional
PC-3 = experiment: Antiproliferative activity against human PC3 cell line; type: functional
MCF7 = experiment: Antiproliferative activity against human MCF7 cell line; type: functional
[1] = system: Panel NCI-60 (60 carcinoma cell lines); experiment: Antiproliferative activity against NCI60 cell line; type: functional; details: Homo sapiens
[2] = Half life in rat plasma; type: ADME, cell-free
HCT-116 = experiment: Antiproliferative activity against HCT116 cell line; type: functional; details: Homo sapiens
SF-539 = experiment: Antiproliferative activity against human SF539 cell line; type: functional
SN12C = experiment: Antiproliferative activity against human SN12C cell line; type: functional

Structure (SMILES) | GI50 (A549) [nM] | GI50 (OVCAR-3) [nM] | GI50 (PC-3) [nM] | GI50 (MCF7) [nM] | half-life [2] [min] | GI50 (HCT-116) [nM] | GI50 (UACC-62) [nM] | GI50 [1] [nM] | GI50 (SF-539) [nM] | GI50 (SN12C) [nM]
C[C@H]1CCC/C=C/[C@@H]2C[C@H](O)C[C@H]2[C@H](O)/C=C/C(=O)O1 [BREFELDIN A] | 40 | 30 | 50 | 20 | > 1440 | 30 | 20 | 40 |  | 
CC(=O)O[C@@H]1C[C@@H]2[C@H](/C=C/CCC[C@H](C)OC(=O)/C=C/[C@H]2OC(C)=O)C1 | 850 | 1480 | 2140 | 2630 |  | 22900 | 10 | 450 | 58900 | 10
C[C@H]1CCC/C=C/[C@@H]2C[C@H](OC(=O)CCCC(=O)NCCCCCCO)C[C@H]2[C@H](O)/C=C/C(=O)O1 | 700 |  | 330 | 180 |  | 650 |  | 470 |  | 
CC(=O)O[C@@H]1C[C@H]2[C@H](O)/C=C/C(=O)O[C@@H](C)CCC/C=C/[C@@H]2C1 | 10 | 10 | 40 | 20 | 30 | 1150 | 10 | 40 | 5250 | 10
C[C@H]1CCC/C=C/[C@@H]2C[C@H](O)C[C@H]2[C@H](OC(=O)CCCC(=O)O)/C=C/C(=O)O1 | 33100 | 36300 | 43600 | 39800 |  | 25700 | 31600 | 29500 | 31600 | 30200
C[C@H]1CCC/C=C/[C@@H]2C[C@H](OC(=O)CCCC(=O)O)C[C@H]2[C@H](O)/C=C/C(=O)O1 | 33200 | 20400 | 19500 | 19000 | > 1440 | 21400 |  | 13000 | 22400 | 32400

Second part, led by results:

GI50 (A549) [nM] | GI50 (OVCAR-3) [nM] | GI50 (PC-3) [nM] | GI50 (MCF7) [nM] | half-life [2] [min] | GI50 (HCT-116) [nM] | Structure (SMILES) | GI50 (UACC-62) [nM] | GI50 [1] [nM] | GI50 (SF-539) [nM] | GI50 (SN12C) [nM]
> 100000 | > 100000 | > 100000 | > 100000 |  | > 100000 | C[C@H]1CCC/C=C/[C@@H]2C[C@H](OC(=O)CCCC(=O)O)C[C@H]2[C@H](OC(=O)CCCC(=O)O)/C=C/C(=O)O1 | > 100000 | 97700 | > 100000 | > 100000
50 | 30 | 60 | 40 | 3 | 40 | COC(=O)CCCC(=O)O[C@@H]1C[C@H]2[C@H](O)/C=C/C(=O)O[C@@H](C)CCC/C=C/[C@@H]2C1 | 130 | 110 | 70 | 200
4170 | 2400 | 40 | 310 |  | 3470 | COC(=O)CCCC(=O)O[C@@H]1/C=C/C(=O)O[C@@H](C)CCC/C=C/[C@@H]2C[C@H](O)C[C@H]21 | 10 | 160 | 3390 | 10
12900 | 600 | 5010 | 2570 |  | 3470 | COC(=O)CCCC(=O)O[C@@H]1C[C@@H]2[C@H](/C=C/CCC[C@H](C)OC(=O)/C=C/[C@H]2OC(=O)CCCC(=O)OC)C1 | 4470 | 5100 | 5010 | 3020
